# What was measured:
# [1] = Clinical manifestations of infectious syndrome (ARVI, ENT diseases, herpes, gastrointestinal, urogenital) after vaccination with SCV-07; assay type: in vivo, human
# Description: The protocol of the placebo-controlled, randomized study of the efficacy of vaccination against viral hepatitis B was approved by the committee of ethics of the Chelyabinsk State Medical Academy. […] Diagnosis of the infectious syndrome was made in accordance with the standards of diagnostics and treatment of secondary immunodeficiencies recommended by the institute of Immunology of the Ministry of Public Health of the RF, Moscow. (R. M. Kahaitov, N. I. Iljina, L. V. and Luss et al., 2002) All subjects gave their personal consent to participate in the study and submitted a signed informed consent form.
# Data on the incidence of episodes and relapses of chronic diseases for each immunocompromised subject were recorded during pre- and post vaccination periods and used to compare the immunological clinical parameters of each subject in the pre- and post vaccination periods. Chronic diseases that were tracked included diseases of the ears, nose and throat, urinary systems, genital systems and gastrointestinal tract, and diseases of the skin, hair and nails (the integumentary tissues).
# Participants in the study had the following clinical manifestations of infectious syndrome: sixty-seven percent (67%) had acute respiratory viral infections (ARVI) more than four times a year; forty-nine percent (49%) had chronic inflammatory diseases of the ears, nose and throat; forty-five percent (45%) suffered from recurrent herpes viral infections; thirty percent (30%) had chronic inflammatory diseases of the gastrointestinal tract; thirty-three (33%) had recurrent infections of the skin and subcutaneous adipose cellular tissues. Study participants with the spontaneous form of secondary immunodeficiency typically had more than one chronic inflammatory disease. Seventy-one percent (71%) of the subjects with infectious syndrome had three or more different clinical manifestations of a chronic inflammatory disease. Subjects with a single clinical manifestation made up only three percent (3%) of Groups I and II.
# bone marrow cells = assay: Expression of Thy1 marker by bone marrow cells (flow cytometry) after SCV-07 treatment; assay type: in vivo, mice
# Description: Materials and Methods: Eighteen (18) to twenty (20) gram (g) male mice, purchased from the Rappolovo Animal Facility, Russia, were used in the studies described below. C57BL/6 (B6) mice were used to evaluate the effect of SCV-07 in non-immunized mice. CBAxC57BL/6 (F1) mice were used for studies of the effects of SCV-07 on the antigen-specific immune response. Mice were kept under the standard animal facility conditions and were provided with a standard diet and water ad libitum. Each treatment group included 4-5 mice. […] A suspension containing filling agents alone, which corresponded to the maximum amount of filling agents in the doses of SCV-07 administered to experimental animals, was used a control. Thigh bones were removed from treated mice under aseptic conditions, and the medullary cavities were […] washed with PBS. Fragments of the bone marrow were minced by passing the tissue through a syringe needle. The resulting cell suspension was filtered through a double gauze layer and washed in PBS. After erythrocytes were lysed, the cells were counted and transferred to flat bottom culture plates. Due to an almost complete lack of spontaneous proliferation, the absolute values of proliferation, which were expressed as counts per minute (CPM), were determined and the Con A-induced proliferation of thymic cells from animals of different groups were compared. Analysis by Flow Cytometry: […] Immunomodulatory Activity of SCV-07 After Oral Administration: Thy1-positive lymphocytes, the precursors of T-cells in the bone marrow, increased in a dose-dependent manner in mice after treatment with SCV-07 per os. These increases were analogous to those observed in mice which received SCV-07 i.p (Table 2).
# splenocytes = assay: OvA-induced proliferation of splenocytes of OvA-immunized mice; assay type: in vivo; conditions: for Proliferation of splenocytes, Spontaneous, cpm, M ± SD / Proliferation of splenocytes, SI / Proliferation of splenocytes, cpm, M ± SD: OvA/FA
# Protocol: Assessment of Mitogen- and Antigen-Induced Proliferation: […] Antigen-specific proliferation was studied by stimulating thymocytes and splenoctyes in vitro with different concentrations of OvA for 96 h. Twenty (20) to twenty-four (24) hours prior to completion of incubation, 3H-labeled thymidine (5 μCi/ml) was added to the cells. The cells were then transferred to fiberglass filters with a Titertek® semi-automatic cell harvester. Thymidine uptake was measured using a RackBeta 1217 (Wallac) liquid scintillation β-counter. For quantitative analysis of proliferation, the stimulation index (SI) was calculated as a ratio of the intensity of label inclusion in the stimulated cells to that in non-stimulated cells.
# [2] = tested on: IL-4 production by ConA-stimulated splenocytes; assay: IL-4 production by ConA-stimulated splenocytes (EIA); assay type: in vivo, mice
# [3] = 10.0 μg/kg per os, OvA 10 μg/ml
# [4] = 10.0 μg/kg per os, OvA 50 μg/ml
smiles,measurement,setting,value
"N[C@H](CCC(=O)N[C@@H](Cc1c[nH]c2ccccc12)C(=O)O)C(=O)O [SCV-07, γ-D-glutamyl-L-tryptophan]",participants reporting herpes outbreaks one to two times during a year,[1]; after vaccination and SCV-07 (13% before),53%
same,participants with herpes infections five times a year or more,[1]; after vaccination and SCV-07 administration (40% before),no participants
same,incidence of ARVI,"[1]; subjects who previously reported ARVI between 5 and 9 times a year, vaccine + SCV-07",sharply reduced
same,participants without episodes or outbreaks of herpes,[1]; vaccinated and received SCV-07,Thirty-four
same,subjects with aggravated chronic ENT diseases three to four times a year who had no aggravated incidents during the first year after vaccination,[1]; vaccinated participants that received SCV-07,35%
same,frequency of chronic diseases of the gastrointestinal tract and the urogenital system,[1]; vaccinated participants with infectious syndrome that received SCV-07,did not change
same,"Thy-1 positive cells, %",bone marrow cells; 0.1 μg/kg per os,12.9 ± 1.2%
same,"Thy-1 positive cells, %",bone marrow cells; 1.0 μg/kg i/p,15.4 ± 0.1%
same,"Thy-1 positive cells, %",bone marrow cells; 1.0 μg/kg per os,14.9 ± 1.3%
same,"Thy-1 positive cells, %",bone marrow cells; 10.0 μg/kg per os,16.0 ± 0.7%
same,"Thy-1 positive cells, %",bone marrow cells; 100.0 μg/kg per os,16.0 ± 1.2%
same,proliferation of splenocytes versus control group,"splenocytes; OvA/Alum, data not shown",No significant differences
same,"Proliferation of splenocytes, Spontaneous, cpm, M ± SD",splenocytes; 0.1 μg/kg i/p,10726 ± 1947 cpm
same,"Proliferation of splenocytes, SI","splenocytes; 0.1 μg/kg i/p, OvA 10 μg/ml",1.09
same,"Proliferation of splenocytes, cpm, M ± SD","splenocytes; 0.1 μg/kg i/p, OvA 10 μg/ml",11683 ± 2285 cpm
same,"Proliferation of splenocytes, SI","splenocytes; 0.1 μg/kg i/p, OvA 50 μg/ml",1.32
same,"Proliferation of splenocytes, cpm, M ± SD","splenocytes; 0.1 μg/kg i/p, OvA 50 μg/ml",14195 ± 3304 cpm
same,"Proliferation of splenocytes, Spontaneous, cpm, M ± SD",splenocytes; 0.1 μg/kg per os,8786 ± 1259 cpm
same,"Proliferation of splenocytes, SI","splenocytes; 0.1 μg/kg per os, OvA 10 μg/ml",1.29
same,"Proliferation of splenocytes, cpm, M ± SD","splenocytes; 0.1 μg/kg per os, OvA 10 μg/ml",11304 ± 1317 cpm
same,"Proliferation of splenocytes, SI","splenocytes; 0.1 μg/kg per os, OvA 50 μg/ml",1.36
same,"Proliferation of splenocytes, cpm, M ± SD","splenocytes; 0.1 μg/kg per os, OvA 50 μg/ml",11923 ± 1623 cpm
same,"Proliferation of splenocytes, Spontaneous, cpm, M ± SD",splenocytes; 1.0 μg/kg i/p,9760 ± 1650 cpm
same,"Proliferation of splenocytes, SI","splenocytes; 1.0 μg/kg i/p, OvA 10 μg/ml",1.05
same,"Proliferation of splenocytes, cpm, M ± SD","splenocytes; 1.0 μg/kg i/p, OvA 10 μg/ml",10260 ± 2808 cpm
same,"Proliferation of splenocytes, SI","splenocytes; 1.0 μg/kg i/p, OvA 50 μg/ml",1.67
same,"Proliferation of splenocytes, cpm, M ± SD","splenocytes; 1.0 μg/kg i/p, OvA 50 μg/ml",16313 ± 1057 cpm
same,"Proliferation of splenocytes, Spontaneous, cpm, M ± SD",splenocytes; 1.0 μg/kg per os,7013 ± 1698 cpm
same,"Proliferation of splenocytes, SI","splenocytes; 1.0 μg/kg per os, OvA 10 μg/ml",1.26
same,"Proliferation of splenocytes, cpm, M ± SD","splenocytes; 1.0 μg/kg per os, OvA 10 μg/ml",8864 ± 2675 cpm
same,"Proliferation of splenocytes, SI","splenocytes; 1.0 μg/kg per os, OvA 50 μg/ml",1.49
same,"Proliferation of splenocytes, cpm, M ± SD","splenocytes; 1.0 μg/kg per os, OvA 50 μg/ml",10457 ± 1740 cpm
same,"Proliferation of splenocytes, Spontaneous, cpm, M ± SD",splenocytes; 10.0 μg/kg per os,10665 ± 887 cpm
same,"Proliferation of splenocytes, SI",splenocytes; [3],1.27
same,"Proliferation of splenocytes, cpm, M ± SD",splenocytes; [3],13585 ± 1102 cpm
same,"Proliferation of splenocytes, SI",splenocytes; [4],1.21
same,"Proliferation of splenocytes, cpm, M ± SD",splenocytes; [4],12903 ± 881 cpm
same,IL-4,"[2]; ConA 1 μg/ml, 0.01 μg/kg per os",98.7 pg/mL
same,IL-4,"[2]; ConA 1 μg/ml, 0.1 μg/kg i/p",62.1 pg/mL
same,IL-4,"[2]; ConA 1 μg/ml, 0.1 μg/kg per os",78.9 pg/mL
same,IL-4,"[2]; ConA 1 μg/ml, 1.0 μg/kg i/p",52.8 pg/mL
same,IL-4,"[2]; ConA 1 μg/ml, 1.0 μg/kg per os",95.8 pg/mL
same,IL-4,"[2]; ConA 1 μg/ml, 10.0 μg/kg per os",53.8 pg/mL
same,IL-4,"[2]; ConA 1 μg/ml, 100.0 μg/kg per os",83.1 pg/mL
same,IL-4,"[2]; ConA 5 μg/ml, 0.01 μg/kg per os",284.9 pg/mL
same,IL-4,"[2]; ConA 5 μg/ml, 0.1 μg/kg i/p",277.5 pg/mL
same,IL-4,"[2]; ConA 5 μg/ml, 0.1 μg/kg per os",229.6 pg/mL
same,IL-4,"[2]; ConA 5 μg/ml, 1.0 μg/kg i/p",152.9 pg/mL
same,IL-4,"[2]; ConA 5 μg/ml, 1.0 μg/kg per os",260.0 pg/mL
same,IL-4,"[2]; ConA 5 μg/ml, 10.0 μg/kg per os",275.0 pg/mL
same,IL-4,"[2]; ConA 5 μg/ml, 100.0 μg/kg per os",192.0 pg/mL
same,IL-4,"[2]; Spontaneous, 0.01 μg/kg per os",6.1 pg/mL
same,IL-4,"[2]; Spontaneous, 0.1 μg/kg i/p",4.2 pg/mL
same,IL-4,"[2]; Spontaneous, 0.1 μg/kg per os",0.0 pg/mL
same,IL-4,"[2]; Spontaneous, 1.0 μg/kg i/p",0.0 pg/mL
same,IL-4,"[2]; Spontaneous, 1.0 μg/kg per os",25.3 pg/mL
same,IL-4,"[2]; Spontaneous, 10.0 μg/kg per os",19.4 pg/mL
same,IL-4,"[2]; Spontaneous, 100.0 μg/kg per os",27.1 pg/mL
